Reference: patent publication US20120046329A1, “MODULATORS OF NOD1 AND NOD2 SIGNALING, METHODS OF IDENTIFYING MODULATORS OF NOD1 AND NOD2 SIGNALING, AND USES THEREOF” (Sanford-Burnham Medical Research Institute, priority 2010, published 2012)

Legend:
[1] = Plasma protein binding, mouse; assay type: in vitro ADME; conditions: for Plasma Protein Binding (% Bound): Mouse
[2] = test system: IKKγ/NEMO, MYD88, FLIP, CARD6, APAF1 or NLRC4 over-expression; test: Gene transfection NF-κB luciferase, HEK 293T; assay type: cell-based, human
TLR9 = target: T1, TLR9 (Homo sapiens, UniProt Q9NR96); test: NF-κB luciferase in 697 pre-B leukemia cells, TLR9 ligand CpG DNA; conditions: 697 cells, 10 μM
T1 sequence (Q9NR96 26-1032): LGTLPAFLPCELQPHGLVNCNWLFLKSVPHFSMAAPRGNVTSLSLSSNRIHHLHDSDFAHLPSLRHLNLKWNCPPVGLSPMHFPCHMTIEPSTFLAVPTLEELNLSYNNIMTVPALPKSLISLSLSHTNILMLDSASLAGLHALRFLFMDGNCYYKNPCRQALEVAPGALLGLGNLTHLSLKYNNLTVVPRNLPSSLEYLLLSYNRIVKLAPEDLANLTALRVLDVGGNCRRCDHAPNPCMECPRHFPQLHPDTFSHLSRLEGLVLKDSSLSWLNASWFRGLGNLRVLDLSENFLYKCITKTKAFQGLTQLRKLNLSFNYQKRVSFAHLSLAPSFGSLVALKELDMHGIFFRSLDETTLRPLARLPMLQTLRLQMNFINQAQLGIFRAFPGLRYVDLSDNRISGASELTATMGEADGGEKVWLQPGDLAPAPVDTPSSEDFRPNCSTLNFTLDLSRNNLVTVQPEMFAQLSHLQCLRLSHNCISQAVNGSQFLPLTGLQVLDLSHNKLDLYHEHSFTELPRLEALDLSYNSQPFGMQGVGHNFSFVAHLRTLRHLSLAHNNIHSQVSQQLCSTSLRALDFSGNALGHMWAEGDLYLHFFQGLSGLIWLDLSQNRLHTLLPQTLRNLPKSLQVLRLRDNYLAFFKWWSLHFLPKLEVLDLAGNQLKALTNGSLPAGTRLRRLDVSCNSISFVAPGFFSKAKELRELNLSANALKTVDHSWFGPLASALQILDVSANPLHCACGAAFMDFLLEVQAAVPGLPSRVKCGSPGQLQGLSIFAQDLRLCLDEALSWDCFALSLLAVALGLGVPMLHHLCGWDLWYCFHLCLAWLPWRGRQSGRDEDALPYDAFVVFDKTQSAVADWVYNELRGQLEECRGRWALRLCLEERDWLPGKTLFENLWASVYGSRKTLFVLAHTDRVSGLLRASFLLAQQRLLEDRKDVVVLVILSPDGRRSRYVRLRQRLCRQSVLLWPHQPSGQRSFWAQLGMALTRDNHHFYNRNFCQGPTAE
Method: Luciferase activity was measured 24 h later (mean±SD; n=3).
Gene reporter assays: HEK293T or 697 cells containing integrated 5×NFκB-driven luciferase reporter gene were seeded into 96-well plates at 10^4 to 10^5 cells per well, and treated with respective inducers for 16 to 24 hours. […] The next day, cells were transfected with 50 ng pNF-κB-LUC (Clontech) and 5 ng Renilla luciferase gene driven by a constitutive TK promoter (pRL-TK; Promega) along with indicated plasmids. After 24 h of transfection in some experiments, cells were stimulated with various agents for 24 h or directly lysed and luciferase activities were assayed using the Dual Luciferase kit (Promega). The results for firefly luciferase activity were normalized to renilla luciferase activity. […] The mean results were obtained from triplicates.

[3] = Microsomal stability, mouse; assay type: in vitro ADME
Plasma stability, mouse = assay type: in vitro ADME
[4] = Microsomal stability, human; assay type: in vitro ADME

**Q.** For `Cc1ccc(S(=O)(=O)n2c(N)nc3ccccc32)cc1` [Compound 1], which “Plasma Protein Binding (% Bound)” value ([1]; 1 μM) is on record?
**A.** Its value is 95.45 % Bound.

**Q.** And the “Plasma Protein Binding (% Bound)” value ([1]; 10 μM)?
**A.** The value was 94.91 % Bound.

**Q.** What about the “Plasma protein binding (in words)” value ([1]; mouse) of the same compound?
**A.** Its value is “high”.

**Q.** And the “Impact on NF-κB in cells over-expressing IKKγ/NEMO, MYD88, FLIP, CARD6, APAF1 or NLRC4” value [2]?
**A.** The value was “No significant impact”.

**Q.** What about the “Effect on NF-κB activity induced by TLR9 ligand CpG DNA” value (TLR9) of the same compound?
**A.** Its value is “did not inhibit”.

**Q.** What about the “Microsomal Stability (% Remaining at 1 hr)” value ([3]; Mouse, 1 hr) of the same compound?
**A.** The value was 0.83 % Remaining.

**Q.** And the “Stability in microsomes (in words)” value ([3]; mouse)?
**A.** The value was “low”.

**Q.** What about the “Plasma Stability (% Remaining at 3 hrs)” value (Plasma stability, mouse; Mouse, 3 hrs) of the same compound?
**A.** Its value is 100/100 % Remaining.

**Q.** What about the “Stability in plasma (in words)” value (Plasma stability, mouse; mouse) of the same compound?
**A.** Its value is “high”.

**Q.** What about the “Microsomal Stability (% Remaining at 1 hr)” value ([4]; Human, 1 hr) of the same compound?
**A.** The value was 41.78 % Remaining.

**Q.** And the “Stability in microsomes (in words)” value ([4]; human)?
**A.** Its value is “moderate”.
